Assay results published in PMC10038056, “Synthesis, biological evaluation and theoretical studies of (E)-1-(4-sulfamoyl-phenylethyl)-3-arylidene-5-aryl-1H-pyrrol-2(3H)-ones as human carbonic anhydrase inhibitors” (Journal of Enzyme Inhibition and Medicinal Chemistry, 2023).

What was measured:
[1] = molecular target: hCA II (Homo sapiens, UniProt P00918); assay: Stopped-flow CO2 hydrase assay, hCA II
Procedure: (§1) (AAZ), a commonly used sulphonamide inhibitor was used for comparing the inhibition data. The Inhibition effects of these compounds on enzyme activities were evaluated under in-vitro conditions. The CA catalysed CO2 hydration activity was measured using an Applied Photophysics stopped-flow instrument. […] In the same way, the uncatalyzed rates were analysed and deducted from the total measured rates. […] The inhibitor and enzyme solutions were preincubated at room temperature for 15 min prior to the experiment to promote the formation of the E-I complex. By employing nonlinear least-squares methods using PRISM 3 and the Cheng-Prusoff equation, the inhibition constants were determined, as was previously reported[18–20]^,[21] and indicate the average of at least three separate measurements that fall between the range of 5 and 10%.

[2] = molecular target: hCA XII (Homo sapiens, UniProt O43570); assay: Stopped-flow CO2 hydrase assay, hCA XII
Procedure: as §1

[3] = molecular target: hCA IX (Homo sapiens, UniProt Q16790); assay: Stopped-flow CO2 hydrase assay, hCA IX
Procedure: as §1

[4] = molecular target: hCA I (Homo sapiens, UniProt P00915); assay: Stopped-flow CO2 hydrase assay, hCA I
Procedure: as §1

[5] = stopped flow, mean from 3 assays, errors 5–10%

Chain of hCA I (P00915 whole entry): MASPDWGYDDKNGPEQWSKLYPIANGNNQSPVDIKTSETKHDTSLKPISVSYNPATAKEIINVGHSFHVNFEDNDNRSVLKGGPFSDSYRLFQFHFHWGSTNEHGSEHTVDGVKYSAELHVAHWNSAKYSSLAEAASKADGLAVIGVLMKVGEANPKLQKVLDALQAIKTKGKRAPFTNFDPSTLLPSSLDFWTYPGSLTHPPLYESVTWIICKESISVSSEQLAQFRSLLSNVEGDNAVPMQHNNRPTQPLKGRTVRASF
Chain of hCA XII (O43570 25-354): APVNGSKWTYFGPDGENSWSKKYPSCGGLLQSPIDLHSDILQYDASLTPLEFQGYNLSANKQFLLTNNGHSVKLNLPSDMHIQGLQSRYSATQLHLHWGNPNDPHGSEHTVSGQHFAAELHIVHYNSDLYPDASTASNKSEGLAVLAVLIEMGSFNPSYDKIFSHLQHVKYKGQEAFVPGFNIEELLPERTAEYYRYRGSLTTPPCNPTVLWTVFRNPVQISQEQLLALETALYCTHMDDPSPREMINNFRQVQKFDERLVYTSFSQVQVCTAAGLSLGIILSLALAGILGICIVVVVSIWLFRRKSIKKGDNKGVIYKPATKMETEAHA

Structure (SMILES) | Ki [1] | Ki [2, 5] | Ki [3] | Ki [4, 5] | melting point | Ki ([4]; in µM) | Ki ([2]; in µM)
Cc1ccc(C2=C/C(=C\c3ccccc3)C(=O)N2CCc2ccc(S(N)(=O)=O)cc2)cc1 [Compound 3e, (E)-4-(2-(3-benzylidene-2-oxo-5-(p-tolyl)-2,3-dihydro-1H-pyrrol-1-yl)ethyl)benzenesulphonamide] | 471 nM | 0.0584 µM | 117 nM | 3.2 µM | 189 to 190 °C | – | –
Cc1ccc(C2=C/C(=C\c3ccc(F)cc3)C(=O)N2CCc2ccc(S(N)(=O)=O)cc2)cc1 [Compound 3f, (E)-4-(2-(3-(4-fluorobenzylidene)-2-oxo-5-(p-tolyl)-2,3-dihydro-1H-pyrrol-1-yl)ethyl)benzenesulphonamide] | 147 nM | 0.0427 µM | 103 nM | 2.53 µM | 196 to 197 °C | – | –
Cc1ccc(C2=C/C(=C\c3ccc(Cl)cc3)C(=O)N2CCc2ccc(S(N)(=O)=O)cc2)cc1 [Compound 3g, (E)-4-(2-(3-(4-chlorobenzylidene)-2-oxo-5-(p-tolyl)-2,3-dihydro-1H-pyrrol-1-yl)ethyl)benzenesulphonamide] | 942 nM | 0.0734 µM | 95.5 nM | 4.39 µM | 224 to 225 °C | – | –
Cc1ccc(C2=C/C(=C\c3ccc(Br)cc3)C(=O)N2CCc2ccc(S(N)(=O)=O)cc2)cc1 [Compound 3h, (E)-4-(2-(3-(4-bromobenzylidene)-2-oxo-5-(p-tolyl)-2,3-dihydro-1H-pyrrol-1-yl)ethyl)benzenesulphonamide] | 1870 nM | 0.094 µM | 84.2 nM | 4.19 µM | 233 to 234 °C | – | –
CCc1ccc(C2=C/C(=C\c3ccccc3)C(=O)N2CCc2ccc(S(N)(=O)=O)cc2)cc1 [Compound 3i, (E)-4-(2-(3-benzylidene-5-(4-ethylphenyl)-2-oxo-2,3-dihydro-1H-pyrrol-1-yl)ethyl)benzenesulphonamide] | 901 nM | 0.0839 µM | 78.3 nM | 1.79 µM | 183 to 184 °C | – | –
CCc1ccc(C2=C/C(=C\c3ccc(F)cc3)C(=O)N2CCc2ccc(S(N)(=O)=O)cc2)cc1 [Compound 3j, (E)-4-(2-(5-(4-ethylphenyl)-3-(4-fluorobenzylidene)-2-oxo-2,3-dihydro-1H-pyrrol-1-yl)ethyl)benzenesulphonamide] | 296 nM | 0.0662 µM | 71.4 nM | 0.836 µM | 185 to 186 °C | – | –
CCc1ccc(C2=C/C(=C\c3ccc(Cl)cc3)C(=O)N2CCc2ccc(S(N)(=O)=O)cc2)cc1 [Compound 3k, (E)-4-(2-(3-(4-chlorobenzylidene)-5-(4-ethylphenyl)-2-oxo-2,3-dihydro-1H-pyrrol-1-yl)ethyl)benzenesulphonamide] | 1620 nM | 0.0911 µM | 102 nM | 5.93 µM | 186 to 187 °C | – | –
NS(=O)(=O)c1ccc(CCN2C(=O)/C(=C/c3ccccc3)C=C2c2ccc(Cl)cc2)cc1 [Compound 3m, (E)-4-(2-(3-benzylidene-5-(4-chlorophenyl)-2-oxo-2,3-dihydro-1H-pyrrol-1-yl)ethyl)benzenesulphonamide] | 780 nM | 0.0617 µM | 54.6 nM | 2.26 µM | 189 to 190 °C | – | –
NS(=O)(=O)c1ccc(CCN2C(=O)/C(=C/c3ccc(F)cc3)C=C2c2ccc(Cl)cc2)cc1 [Compound 3n, (E)-4-(2-(5-(4-chlorophenyl)-3-(4-fluorobenzylidene)-2-oxo-2,3-dihydro-1H-pyrrol-1-yl)ethyl)benzenesulphonamide] | 466 nM | 0.0391 µM | 41.3 nM | 1.42 µM | 159 to 160 °C | – | –
NS(=O)(=O)c1ccc(CCN2C(=O)/C(=C/c3ccc(Cl)cc3)C=C2c2ccc(Cl)cc2)cc1 [Compound 3o, (E)-4-(2-(3-(4-chlorobenzylidene)-5-(4-chlorophenyl)-2-oxo-2,3-dihydro-1H-pyrrol-1-yl)ethyl)benzenesulphonamide] | 1890 nM | 0.0789 µM | 68.9 nM | 5.09 µM | 163 to 164 °C | – | –
NS(=O)(=O)c1ccc(CCN2C(=O)/C(=C/c3ccc(Br)cc3)C=C2c2ccc(Cl)cc2)cc1 [Compound 3p, (E)-4-(2-(3-(4-bromobenzylidene)-5-(4-chlorophenyl)-2-oxo-2,3-dihydro-1H-pyrrol-1-yl)ethyl)benzenesulphonamide] | 3850 nM | 0.0854 µM | 74.3 nM | 5.87 µM | 176 to 177 °C | – | –
CC(C)(C)c1ccc(C2=C/C(=C\c3ccc(F)cc3)C(=O)N2CCc2ccc(S(N)(=O)=O)cc2)cc1 [Compound 3r, (E)-4-(2-(5-(4-(tert-butyl)phenyl)-3-(4-fluorobenzylidene)-2-oxo-2,3-dihydro-1H-pyrrol-1-yl)ethyl)benzenesulphonamide] | 1260 nM | 0.356 µM | 418 nM | 6 µM | 187 to 188 °C | – | –
CC(C)(C)c1ccc(C2=C/C(=C\c3ccc(Cl)cc3)C(=O)N2CCc2ccc(S(N)(=O)=O)cc2)cc1 [Compound 3s, (E)-4-(2-(5-(4-(tert-butyl)phenyl)-3-(4-chlorobenzylidene)-2-oxo-2,3-dihydro-1H-pyrrol-1-yl)ethyl)benzenesulphonamide] | 4360 nM | 0.342 µM | 432 nM | 7.93 µM | 196 to 197 °C | – | 0.34 µM
CC(C)(C)c1ccc(C2=C/C(=C\c3ccc(Br)cc3)C(=O)N2CCc2ccc(S(N)(=O)=O)cc2)cc1 [Compound 3t, (E)-4-(2-(3-(4-bromobenzylidene)-5-(4-(tert-butyl)phenyl)-2-oxo-2,3-dihydro-1H-pyrrol-1-yl)ethyl)benzenesulphonamide] | 4690 nM | 0.308 µM | 391 nM | 9.27 µM | 204 to 205 °C | 9.3 µM | –

Continued by falling Ki [1], values first:

Ki [1] | Ki [2, 5] | Ki [3] | Ki [4, 5] | melting point | Ki ([4]; in µM) | Ki ([2]; in µM) | Structure (SMILES)
3710 nM | 0.0563 µM | 77.5 nM | 6.76 µM | 188 to 189 °C | – | – | CCc1ccc(C2=C/C(=C\c3ccc(Br)cc3)C(=O)N2CCc2ccc(S(N)(=O)=O)cc2)cc1 [Compound 3l, (E)-4-(2-(3-(4-bromobenzylidene)-5-(4-ethylphenyl)-2-oxo-2,3-dihydro-1H-pyrrol-1-yl)ethyl)benzenesulphonamide]
1650 nM | 0.396 µM | 468 nM | 8.5 µM | 183 to 184 °C | 8.5 µM | – | CC(C)(C)c1ccc(C2=C/C(=C\c3ccccc3)C(=O)N2CCc2ccc(S(N)(=O)=O)cc2)cc1 [Compound 3q, (E)-4-(2-(3-benzylidene-5-(4-(tert-butyl)phenyl)-2-oxo-2,3-dihydro-1H-pyrrol-1-yl)ethyl)benzenesulphonamide]
1430 nM | 0.0898 µM | 112 nM | 4.25 µM | 214 to 215 °C | – | – | NS(=O)(=O)c1ccc(CCN2C(=O)/C(=C/c3ccc(Br)cc3)C=C2c2ccccc2)cc1 [Compound 3d, (E)-4-(2-(3-(4-bromobenzylidene)-2-oxo-5-phenyl-2,3-dihydro-1H-pyrrol-1-yl)ethyl)benzenesulphonamide]
718 nM | 0.0765 µM | 108 nM | 3.25 µM | 192 to 193 °C | – | – | NS(=O)(=O)c1ccc(CCN2C(=O)/C(=C/c3ccc(Cl)cc3)C=C2c2ccccc2)cc1 [Compound 3c, (E)-4-(2-(3-(4-chlorobenzylidene)-2-oxo-5-phenyl-2,3-dihydro-1H-pyrrol-1-yl)ethyl)benzenesulphonamide]
368 nM | 0.0621 µM | 93.8 nM | 0.634 µM | 167 to 168 °C | – | – | NS(=O)(=O)c1ccc(CCN2C(=O)/C(=C/c3ccccc3)C=C2c2ccccc2)cc1 [Compound 3a, (E)-4-(2-(3-benzylidene-2-oxo-5-phenyl-2,3-dihydro-1H-pyrrol-1-yl)ethyl) benzenesulphonamide]
81.4 nM | 0.0456 µM | 72.7 nM | 0.369 µM | 170 to 171 °C | – | – | NS(=O)(=O)c1ccc(CCN2C(=O)/C(=C/c3ccc(F)cc3)C=C2c2ccccc2)cc1 [Compound 3b, (E)-4-(2-(3-(4-fluorobenzylidene)-2-oxo-5-phenyl-2,3-dihydro-1H-pyrrol-1-yl)ethyl)benzenesulphonamide]
